# In the SangsterLogP compilation:
# Test: method code SF-HPLC, from DOI: 10.1016/j.ecoenv.2011.11.024
# Settings: pH 2.0
row,SMILES,logD
1,Sc1cccc(Br)c1,2.48
2,Sc1ccc(Cl)cc1Cl,2.49
3,Cc1cccc(S)c1,3.13
4,Sc1cc(Cl)cc(Cl)c1,2.43
5,Cc1ccccc1S,3.52
6,Sc1ccc(Br)cc1,2.72
7,Fc1cc(F)c(F)c(S)c1F,1.76
8,Fc1cccc(S)c1,2.12
9,Sc1ccc(Cl)cc1,2.66
10,Cc1ccc(C)c(S)c1,3.92
11,Cc1ccc(S)cc1C,3.62
12,Cc1cccc(C)c1S,4.02
13,COc1cccc(S)c1,2.93
14,Cc1ccc(S)cc1,3.27
15,Sc1ccccc1Cl,2.27
16,Sc1cccc(Cl)c1,2.47
17,Sc1ccccc1Br,2.44
18,Fc1ccc(S)cc1,2.92
19,Cc1ccc(S)c(C)c1,3.77
20,COc1ccc(S)cc1OC,3.32
21,Fc1ccccc1S,1.9
22,Sc1cccc(Cl)c1Cl,2.44
23,Sc1c(Cl)cccc1Cl,2.35
24,Sc1cc(Cl)ccc1Cl,2.48
